This is an account of results in ChEMBL document CHEMBL5291721, “A preclinical secondary pharmacology resource illuminates target-adverse drug reaction associations of marketed drugs” (Nat Commun, 2023).

Among the targets are Adenosine receptor A2a (Homo sapiens, UniProt P29274); Motilin receptor (Homo sapiens, UniProt O43193); D(3) dopamine receptor (Homo sapiens, UniProt P35462).
Assay [1] deals with T1, Alpha-2A adrenergic receptor (Homo sapiens, UniProt P08913).
T1 sequence (P08913 whole entry): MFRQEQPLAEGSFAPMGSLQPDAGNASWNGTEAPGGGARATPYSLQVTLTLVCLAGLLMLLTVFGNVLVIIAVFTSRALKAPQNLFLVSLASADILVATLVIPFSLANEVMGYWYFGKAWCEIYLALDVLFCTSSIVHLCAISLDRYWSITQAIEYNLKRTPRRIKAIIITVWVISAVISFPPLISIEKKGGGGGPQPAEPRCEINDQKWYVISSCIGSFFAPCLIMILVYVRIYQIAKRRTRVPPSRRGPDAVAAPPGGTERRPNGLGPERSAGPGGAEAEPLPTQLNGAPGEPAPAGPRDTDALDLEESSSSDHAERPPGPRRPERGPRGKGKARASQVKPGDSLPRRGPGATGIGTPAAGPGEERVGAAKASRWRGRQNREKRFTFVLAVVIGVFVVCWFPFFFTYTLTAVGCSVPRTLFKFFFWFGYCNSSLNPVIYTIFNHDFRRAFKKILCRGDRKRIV
Format: functional, cell-based.

In assay [2] the target is Growth hormone secretagogue receptor type 1 (Homo sapiens, UniProt Q92847).
Sequence of Growth hormone secretagogue receptor type 1 (Q92847 whole entry): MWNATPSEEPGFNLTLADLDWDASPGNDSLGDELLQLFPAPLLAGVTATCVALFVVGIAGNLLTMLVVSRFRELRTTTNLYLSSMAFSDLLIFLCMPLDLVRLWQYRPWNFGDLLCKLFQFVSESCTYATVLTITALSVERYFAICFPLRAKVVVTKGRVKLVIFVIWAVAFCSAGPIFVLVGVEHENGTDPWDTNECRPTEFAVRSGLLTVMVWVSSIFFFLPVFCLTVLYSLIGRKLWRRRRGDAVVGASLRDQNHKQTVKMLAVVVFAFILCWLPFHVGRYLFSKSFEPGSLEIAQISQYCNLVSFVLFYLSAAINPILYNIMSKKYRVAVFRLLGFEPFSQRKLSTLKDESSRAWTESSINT
The target in assay [3] is T2, 5-hydroxytryptamine receptor 1A (Homo sapiens, UniProt P08908).
T2 sequence (P08908 whole entry): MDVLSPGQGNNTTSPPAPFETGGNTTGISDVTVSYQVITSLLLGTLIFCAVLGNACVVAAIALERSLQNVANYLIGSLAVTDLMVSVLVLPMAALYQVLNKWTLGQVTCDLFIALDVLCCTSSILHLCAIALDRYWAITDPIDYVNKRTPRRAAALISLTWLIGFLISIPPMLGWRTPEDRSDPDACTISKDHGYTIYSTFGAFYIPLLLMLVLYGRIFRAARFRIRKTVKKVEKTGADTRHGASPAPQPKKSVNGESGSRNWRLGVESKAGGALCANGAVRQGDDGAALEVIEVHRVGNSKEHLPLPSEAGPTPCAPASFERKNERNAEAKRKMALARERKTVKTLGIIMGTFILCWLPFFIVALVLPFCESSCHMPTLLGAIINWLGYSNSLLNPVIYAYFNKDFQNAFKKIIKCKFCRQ
The class given is functional, cell-based.

In assay [4] the target is T3, 5-hydroxytryptamine receptor 2C (Homo sapiens, UniProt P28335).
T3 sequence (P28335 whole entry): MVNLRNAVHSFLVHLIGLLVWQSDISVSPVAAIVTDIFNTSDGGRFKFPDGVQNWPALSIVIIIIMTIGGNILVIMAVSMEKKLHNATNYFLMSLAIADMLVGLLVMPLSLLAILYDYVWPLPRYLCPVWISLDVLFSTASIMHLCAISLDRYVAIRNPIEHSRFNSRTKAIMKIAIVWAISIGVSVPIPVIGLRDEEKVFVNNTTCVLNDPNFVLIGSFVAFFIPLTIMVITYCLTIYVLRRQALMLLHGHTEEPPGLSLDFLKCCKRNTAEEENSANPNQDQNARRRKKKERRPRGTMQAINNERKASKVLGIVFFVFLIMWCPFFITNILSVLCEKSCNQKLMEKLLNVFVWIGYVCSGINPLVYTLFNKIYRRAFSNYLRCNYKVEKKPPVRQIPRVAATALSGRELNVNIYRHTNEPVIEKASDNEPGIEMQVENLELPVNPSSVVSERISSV

Assay [5] has as its target Delta-type opioid receptor (Homo sapiens, UniProt P41143).
The target of assay [6] is 3',5'-cyclic-AMP phosphodiesterase 4D (Homo sapiens, UniProt Q08499). The class given is functional.
Sequence of 3',5'-cyclic-AMP phosphodiesterase 4D (Q08499 whole entry): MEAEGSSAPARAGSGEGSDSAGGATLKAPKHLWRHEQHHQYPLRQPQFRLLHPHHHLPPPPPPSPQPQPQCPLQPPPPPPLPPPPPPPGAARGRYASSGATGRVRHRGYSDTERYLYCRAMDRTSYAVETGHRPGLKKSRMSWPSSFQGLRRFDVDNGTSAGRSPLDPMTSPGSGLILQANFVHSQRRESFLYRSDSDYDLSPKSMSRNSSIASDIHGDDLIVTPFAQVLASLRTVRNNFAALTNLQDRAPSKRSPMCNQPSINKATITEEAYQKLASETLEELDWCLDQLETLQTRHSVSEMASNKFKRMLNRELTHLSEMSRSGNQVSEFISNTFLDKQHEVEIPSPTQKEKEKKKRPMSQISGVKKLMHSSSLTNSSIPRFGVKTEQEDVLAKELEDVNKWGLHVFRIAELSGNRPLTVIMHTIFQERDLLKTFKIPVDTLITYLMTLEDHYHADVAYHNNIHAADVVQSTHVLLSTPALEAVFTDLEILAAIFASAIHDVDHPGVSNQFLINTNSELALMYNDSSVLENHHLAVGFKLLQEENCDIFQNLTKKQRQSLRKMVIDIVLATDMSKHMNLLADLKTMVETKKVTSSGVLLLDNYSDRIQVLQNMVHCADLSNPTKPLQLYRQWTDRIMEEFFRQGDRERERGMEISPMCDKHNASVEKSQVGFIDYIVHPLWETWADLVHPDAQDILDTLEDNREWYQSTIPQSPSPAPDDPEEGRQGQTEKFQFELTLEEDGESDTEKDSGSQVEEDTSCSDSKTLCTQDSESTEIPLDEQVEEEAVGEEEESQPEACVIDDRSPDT
For assay [7], the target named is T4, Equilibrative nucleoside transporter 1 (Homo sapiens, UniProt Q99808).
T4 sequence (Q99808 whole entry): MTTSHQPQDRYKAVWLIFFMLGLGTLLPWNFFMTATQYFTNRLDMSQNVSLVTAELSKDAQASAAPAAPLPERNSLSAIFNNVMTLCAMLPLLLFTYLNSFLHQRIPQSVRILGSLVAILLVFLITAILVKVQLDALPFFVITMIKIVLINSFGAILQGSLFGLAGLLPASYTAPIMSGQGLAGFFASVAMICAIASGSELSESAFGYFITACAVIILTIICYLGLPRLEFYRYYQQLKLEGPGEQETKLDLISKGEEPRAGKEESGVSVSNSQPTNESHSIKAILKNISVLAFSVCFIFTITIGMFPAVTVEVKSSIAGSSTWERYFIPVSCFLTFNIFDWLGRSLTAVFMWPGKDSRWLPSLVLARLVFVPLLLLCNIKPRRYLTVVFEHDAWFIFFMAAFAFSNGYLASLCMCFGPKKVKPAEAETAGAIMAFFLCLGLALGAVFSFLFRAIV

In assay [8] the target is Sodium-dependent dopamine transporter (Homo sapiens, UniProt Q01959).
Sequence of Sodium-dependent dopamine transporter (Q01959 whole entry): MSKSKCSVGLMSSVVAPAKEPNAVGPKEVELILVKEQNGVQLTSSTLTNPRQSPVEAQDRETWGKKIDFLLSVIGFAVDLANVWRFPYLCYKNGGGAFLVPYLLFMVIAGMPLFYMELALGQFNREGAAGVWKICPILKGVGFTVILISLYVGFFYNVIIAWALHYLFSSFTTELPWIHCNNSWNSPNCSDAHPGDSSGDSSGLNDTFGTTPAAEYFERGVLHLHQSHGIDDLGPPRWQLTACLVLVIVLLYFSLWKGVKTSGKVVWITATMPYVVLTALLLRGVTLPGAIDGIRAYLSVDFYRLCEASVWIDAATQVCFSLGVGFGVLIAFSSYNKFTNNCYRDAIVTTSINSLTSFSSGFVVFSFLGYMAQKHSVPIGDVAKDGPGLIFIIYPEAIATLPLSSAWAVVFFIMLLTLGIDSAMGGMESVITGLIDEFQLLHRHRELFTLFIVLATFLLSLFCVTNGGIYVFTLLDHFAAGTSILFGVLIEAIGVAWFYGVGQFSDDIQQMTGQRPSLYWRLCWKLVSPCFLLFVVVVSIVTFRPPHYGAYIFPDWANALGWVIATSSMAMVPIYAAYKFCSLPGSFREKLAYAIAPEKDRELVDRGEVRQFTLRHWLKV
In assay [9] the target is Sodium-dependent noradrenaline transporter (Homo sapiens, UniProt P23975).
Sequence of Sodium-dependent noradrenaline transporter (P23975 whole entry): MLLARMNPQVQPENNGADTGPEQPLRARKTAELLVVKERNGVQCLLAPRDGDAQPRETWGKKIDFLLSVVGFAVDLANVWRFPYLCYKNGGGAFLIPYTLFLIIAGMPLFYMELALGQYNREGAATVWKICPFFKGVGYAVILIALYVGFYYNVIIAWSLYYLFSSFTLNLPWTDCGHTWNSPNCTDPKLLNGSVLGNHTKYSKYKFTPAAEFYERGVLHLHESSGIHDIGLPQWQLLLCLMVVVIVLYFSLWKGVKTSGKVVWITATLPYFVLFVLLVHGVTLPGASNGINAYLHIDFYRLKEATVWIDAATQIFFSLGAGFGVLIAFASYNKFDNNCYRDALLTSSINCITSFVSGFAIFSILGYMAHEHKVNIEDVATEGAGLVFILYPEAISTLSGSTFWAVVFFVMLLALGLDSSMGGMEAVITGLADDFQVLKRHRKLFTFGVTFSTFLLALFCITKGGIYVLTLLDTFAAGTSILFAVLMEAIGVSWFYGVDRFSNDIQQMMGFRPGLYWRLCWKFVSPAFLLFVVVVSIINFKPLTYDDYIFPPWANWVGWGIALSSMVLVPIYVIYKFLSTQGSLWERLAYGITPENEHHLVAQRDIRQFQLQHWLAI
In assay [10] the target is cGMP-inhibited 3',5'-cyclic phosphodiesterase 3A (Homo sapiens, UniProt Q14432). The class given is functional.
Sequence of cGMP-inhibited 3',5'-cyclic phosphodiesterase 3A (Q14432 whole entry): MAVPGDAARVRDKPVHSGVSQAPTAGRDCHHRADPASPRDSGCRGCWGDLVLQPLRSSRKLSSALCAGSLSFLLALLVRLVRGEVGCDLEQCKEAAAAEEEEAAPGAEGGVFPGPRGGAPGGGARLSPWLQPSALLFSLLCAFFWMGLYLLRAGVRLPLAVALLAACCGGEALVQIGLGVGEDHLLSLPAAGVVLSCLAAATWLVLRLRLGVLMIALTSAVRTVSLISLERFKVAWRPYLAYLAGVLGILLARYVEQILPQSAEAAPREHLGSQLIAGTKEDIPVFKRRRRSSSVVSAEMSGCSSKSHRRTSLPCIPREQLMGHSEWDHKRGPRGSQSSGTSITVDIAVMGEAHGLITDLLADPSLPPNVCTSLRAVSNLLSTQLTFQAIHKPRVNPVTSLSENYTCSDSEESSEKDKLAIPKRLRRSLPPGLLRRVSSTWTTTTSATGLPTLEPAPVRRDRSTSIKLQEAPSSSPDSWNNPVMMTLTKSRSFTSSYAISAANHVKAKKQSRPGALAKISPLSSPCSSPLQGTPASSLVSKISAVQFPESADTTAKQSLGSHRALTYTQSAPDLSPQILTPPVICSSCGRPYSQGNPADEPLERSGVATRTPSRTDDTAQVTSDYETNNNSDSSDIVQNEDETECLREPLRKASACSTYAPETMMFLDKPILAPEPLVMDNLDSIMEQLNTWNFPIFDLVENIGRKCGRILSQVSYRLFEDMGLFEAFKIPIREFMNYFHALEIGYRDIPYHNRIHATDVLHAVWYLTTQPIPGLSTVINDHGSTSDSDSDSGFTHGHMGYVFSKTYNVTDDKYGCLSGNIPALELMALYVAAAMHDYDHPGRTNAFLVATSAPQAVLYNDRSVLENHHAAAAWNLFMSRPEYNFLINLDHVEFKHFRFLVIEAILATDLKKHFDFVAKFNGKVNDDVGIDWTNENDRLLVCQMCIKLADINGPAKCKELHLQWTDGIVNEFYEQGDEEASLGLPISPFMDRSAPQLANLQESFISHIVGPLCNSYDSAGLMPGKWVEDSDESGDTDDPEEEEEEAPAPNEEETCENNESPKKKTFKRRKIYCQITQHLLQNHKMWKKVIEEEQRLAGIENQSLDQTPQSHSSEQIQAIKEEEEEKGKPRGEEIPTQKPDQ
Assay [11] has as its target Voltage-gated inwardly rectifying potassium channel KCNH2 (Homo sapiens, UniProt Q12809). Format: functional. Conditions: read-out: AC50.
Further: assay procedure not described here.

Sequence of Delta-type opioid receptor (P41143 whole entry): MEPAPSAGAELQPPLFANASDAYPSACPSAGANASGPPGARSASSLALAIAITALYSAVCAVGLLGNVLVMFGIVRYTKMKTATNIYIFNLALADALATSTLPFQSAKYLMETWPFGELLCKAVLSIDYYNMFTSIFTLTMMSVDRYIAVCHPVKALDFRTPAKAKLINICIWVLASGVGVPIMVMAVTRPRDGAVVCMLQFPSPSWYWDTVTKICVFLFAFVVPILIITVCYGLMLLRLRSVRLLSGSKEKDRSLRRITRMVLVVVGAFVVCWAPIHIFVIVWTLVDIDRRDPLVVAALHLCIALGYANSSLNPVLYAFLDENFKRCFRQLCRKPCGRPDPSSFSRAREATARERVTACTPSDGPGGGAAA
Sequence of Motilin receptor (O43193 whole entry): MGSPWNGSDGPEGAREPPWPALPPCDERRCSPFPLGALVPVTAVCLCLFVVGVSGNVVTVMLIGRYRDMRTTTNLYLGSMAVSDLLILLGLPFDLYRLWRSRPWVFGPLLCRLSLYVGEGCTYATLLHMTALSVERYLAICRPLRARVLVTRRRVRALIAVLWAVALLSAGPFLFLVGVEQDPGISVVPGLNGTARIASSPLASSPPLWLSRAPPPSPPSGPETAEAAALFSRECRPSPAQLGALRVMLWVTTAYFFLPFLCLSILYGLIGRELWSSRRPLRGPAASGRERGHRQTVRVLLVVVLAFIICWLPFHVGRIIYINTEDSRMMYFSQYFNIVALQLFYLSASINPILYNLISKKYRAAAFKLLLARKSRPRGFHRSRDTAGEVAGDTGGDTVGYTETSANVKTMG
Sequence of D(3) dopamine receptor (P35462 whole entry): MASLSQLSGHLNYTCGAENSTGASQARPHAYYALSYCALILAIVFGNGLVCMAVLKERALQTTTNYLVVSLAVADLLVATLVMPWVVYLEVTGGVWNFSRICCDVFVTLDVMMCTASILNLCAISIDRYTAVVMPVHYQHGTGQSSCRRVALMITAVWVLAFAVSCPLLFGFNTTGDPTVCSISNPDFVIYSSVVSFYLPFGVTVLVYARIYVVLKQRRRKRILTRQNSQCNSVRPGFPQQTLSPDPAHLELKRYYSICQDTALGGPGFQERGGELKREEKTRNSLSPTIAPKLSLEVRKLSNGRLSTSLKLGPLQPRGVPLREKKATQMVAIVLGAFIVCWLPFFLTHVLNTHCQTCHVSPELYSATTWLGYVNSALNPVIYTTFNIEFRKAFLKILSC

Consider `O=C(CCCCCCC(=O)Nc1ccccc1)NO` [VORINOSTAT], for which the concentration at half-maximal activity (AC50) (at Adenosine receptor A2a; in [1]; in assay [2]; in assay [3]; in [4]; at Motilin receptor) was over 30 µM in each case. In addition, the concentration at half-maximal activity (AC50) in [5], in assay [6], in assay [7], in [8], in assay [9] and in [10] was over 30 µM each time. On D(3) dopamine receptor, the AC50 (commonly the concentration at which the activity in the assay is half-maximal) was over 30 µM.

As to `COc1cc(Nc2c(C#N)cnc3cc(OCCCN4CCN(C)CC4)c(OC)cc23)c(Cl)cc1Cl` [BOSUTINIB], the AC50 on Adenosine receptor A2a is over 30 µM; in [2], 4.3 µM; in assay [4], 7 µM; at Motilin receptor it was over 10 µM; in assay [5] it was over 10 µM; in assay [6], over 30 µM. Besides, the AC50 in [7] is 32.5 µM; in [8], 8.75 µM; in [9] it was over 10 µM; in [10], over 30 µM; at D(3) dopamine receptor, 5.6 µM.

Turning to `CNC(=O)c1cc(Oc2ccc(NC(=O)Nc3ccc(Cl)c(C(F)(F)F)c3)cc2)ccn1` [SORAFENIB], the AC50 on Adenosine receptor A2a was over 30 µM; in assay [1] it was over 30 µM; in [2], over 30 µM; in assay [4], over 30 µM; in assay [11], over 30 µM; at Motilin receptor, 2.8 µM. Moreover, the AC50 in assay [5] was over 30 µM; in [6] it was over 30 µM; in assay [7], over 30 µM; in [8], 6.85 µM; in assay [9] it was over 30 µM; in assay [10] it was over 30 µM. Moreover, the AC50 at D(3) dopamine receptor was over 30 µM.

On to `COC(=O)C1=C(C)NC(C)=C(C(=O)OCC(C)C)C1c1ccccc1[N+](=O)[O-]` (stereo not drawn) [NISOLDIPINE], for which the AC50 on Adenosine receptor A2a was 5.5 µM; in [1], over 10 µM; in assay [2] it was over 10 µM; in assay [3], over 10 µM; in assay [4], over 30 µM; on Motilin receptor, over 10 µM. The AC50 is over 30 µM in assay [5]; 11 µM in [6]; over 10 µM in assay [7]; over 10 µM in [8]; over 10 µM in assay [9]; 6.2 µM in [10]. At D(3) dopamine receptor, this compound returned an AC50 of 10 µM.

As to `CN(CCOc1ccc(NS(C)(=O)=O)cc1)CCc1ccc(NS(C)(=O)=O)cc1` [DOFETILIDE], the AC50 is over 30 µM on Adenosine receptor A2a; over 30 µM in assay [1]; over 30 µM in assay [2]; over 30 µM in assay [3]; over 30 µM in assay [4]; over 10 µM on Motilin receptor. For the same compound, the AC50 in assay [5] is over 30 µM; in assay [6], over 30 µM; in [7], over 30 µM; in [8], over 10 µM; in assay [9], over 10 µM; in assay [10] it was over 30 µM. The same compound gave an AC50 at D(3) dopamine receptor of 0.78 µM.

For the compound `OCc1cc([C@@H](O)CNCCCCCCOCCOCc2c(Cl)cccc2Cl)ccc1O` [VILANTEROL], the AC50 was over 30 µM on Adenosine receptor A2a; over 30 µM in [1]; 13 µM in [2]; over 30 µM in assay [3]; over 30 µM in [4]; 14 µM on Motilin receptor. Besides, the concentration at half-maximal activity (AC50) is over 30 µM in [5]; 18 µM in assay [6]; over 30 µM in [7]; 6.7 µM in [8]; 23 µM in assay [9]; over 30 µM in [10]. For the same compound, the half-maximal activity concentration (AC50) at D(3) dopamine receptor is over 30 µM.

With `COC(=O)N[C@H](C(=O)N1CCC[C@H]1c1nc(-c2ccc(-c3ccc(-c4c[nH]c([C@@H]5CCCN5C(=O)[C@@H](NC(=O)OC)C(C)C)n4)cc3)cc2)c[nH]1)C(C)C`, the AC50 (at Adenosine receptor A2a; in assay [1]; in assay [2]; in assay [3]; in [4]; at Motilin receptor) was over 30 µM throughout. The AC50 in assay [5], in assay [6], in assay [7], in assay [8], in assay [9] and in assay [10] was over 30 µM in each case. On D(3) dopamine receptor, this compound yielded an AC50 of over 30 µM.

With `NC(N)=Nc1nc(CSCCC(N)=NS(N)(=O)=O)cs1` [FAMOTIDINE], the half-maximal activity concentration (AC50) on Adenosine receptor A2a was over 30 µM; in [1], over 10 µM; in assay [2], over 30 µM; in assay [3] it was over 10 µM; in assay [4], over 10 µM; at Motilin receptor, over 10 µM. The concentration at half-maximal activity (AC50) in assay [5] was over 10 µM; in assay [6], over 10 µM; in [7], over 30 µM; in [8] it was over 10 µM; in assay [9], over 10 µM; in assay [10] it was over 10 µM. Also, the AC50 at D(3) dopamine receptor is over 10 µM.

Take `COc1cc2c(cc1OC)C(=O)C(CC1CCN(Cc3ccccc3)CC1)C2` (stereo not drawn) [DONEPEZIL]: the AC50 was over 30 µM on Adenosine receptor A2a; over 10 µM in [1]; over 30 µM in [2]; over 30 µM in assay [4]; over 10 µM on Motilin receptor; over 30 µM in assay [5]. Also, the AC50 in assay [6] is over 30 µM; in assay [7], over 30 µM; in assay [8] it was over 30 µM; in assay [9], 6.1 µM; in [10], over 30 µM.

For `CN1CCCC(n2nc(Cc3ccc(Cl)cc3)c3ccccc3c2=O)CC1` (stereo not drawn) [AZELASTINE], the AC50 on Adenosine receptor A2a was over 30 µM; in assay [1], over 30 µM; in [2] it was 14 µM; in [3] it was over 30 µM; at Motilin receptor it was over 30 µM; in [5], over 30 µM. Further, the AC50 in assay [6] was over 30 µM; in assay [7], over 30 µM; in assay [8], 7.3 µM; in [9], 4.7 µM; in [10], over 30 µM; at D(3) dopamine receptor it was 6.5 µM.

With `CCC[C@@H]1C[C@@H](C(=O)N[C@@H]([C@H]2O[C@H](SC)[C@H](O)[C@@H](O)[C@H]2O)[C@H](C)Cl)N(C)C1` [CLINDAMYCIN], the AC50 at Adenosine receptor A2a was over 30 µM; in assay [1] it was over 10 µM; in [2], over 30 µM; in [3] it was over 10 µM; in assay [4] it was over 30 µM; at Motilin receptor, over 10 µM. Besides, the AC50 was over 30 µM in [5]; over 30 µM in assay [6]; over 30 µM in assay [7]; over 10 µM in [8]; over 10 µM in [9]; over 30 µM in assay [10]. At D(3) dopamine receptor, the AC50 was over 10 µM.
